Test system: AMV (avian myeloblastosis virus) reverse transcriptase
Assay: AMV reverse transcriptase inhibition ([3H]dTTP incorporation)
Assay type: biochemical
Details: 1 Inhibition unit = activity which inhibits 1 unit of reverse transcriptase activity to 50%
Method: 1 unit of AMV (avian myeloblastosis virus) reverse transcriptase was mixed with 50 μl of a mixture (50 mM tris hydrochloride, pH 8.4, 2 mM dithiothreitol, 100 mM KCl, 10 mM MgCl2, 0.1% triton X-100, 50 μg poly (rA)-oligo (dT)/ml, 1.25 μCi [^3 H] dTTP (57 Ci/mmol)) and with various concentration of various sulfated polysaccharides.
The reaction mixtures were incubated and stopped by the addition of 5% trichloroacetic acid. Precipitates were collected on glass fiber filters and their radio activities were determined by a liquid scintilation counter.
1 Inhibition unit is defined as an activity which inhibits 1 unit of reverse transcriptase activity to 50%.

## Chondroitin sulfate
  Inhibition Unit/mg: 30 Inhibition Unit/mg

## Dermatan sulfate
  Inhibition Unit/mg: 210 Inhibition Unit/mg

## Heparan sulfate
  Inhibition Unit/mg: 50 Inhibition Unit/mg

## Heparin
  Inhibition Unit/mg: 830 Inhibition Unit/mg

## Karatan sulfate
  Inhibition Unit/mg: 30 Inhibition Unit/mg

## l-Carrageenan
  Inhibition Unit/mg: 35810 Inhibition Unit/mg

## κ-Carrageenan
  Inhibition Unit/mg: 30200 Inhibition Unit/mg

## λ-Carrageenan
  Inhibition Unit/mg: 68320 Inhibition Unit/mg

From patent US5878747A, “Condom coated with acidic polysaccharides” (Fuji Latex Co., Ltd., priority 1993, dated 1999)
